Here are results for four compounds from patent US10849840B2, “Compositions and methods for stimulation MAGP-1 to improve the appearance of skin” (New Avon LLC, priority 2010, dated 2020).

This assay deals with MAGP-1. The assay is described as follows: MAGP-1 screening method: MAGP-1 mRNA (RT-qPCR, normalized to GAPDH) in treated normal human dermal fibroblasts. The assay is classed as cell-based. The following applies: 48 hours treatment.

Protocol: Normal human dermal fibroblasts (Cascade Biologics) were cultured in 100 mm plates with 10 ml of DMEM with 10% serum and incubated for 24 hours at 37° C. and 10% CO2. After 24 hours, stock solutions of test compounds/plant extracts were made in appropriate solvents (e.g., DMSO). Cells were treated with test material or respective vehicle control diluted in growth medium for 48 hours in a humidified 37° C. incubator with 10% CO2. After incubation, growth medium from each plate was removed and 800 ul of TRIzol Reagent (Invitrogen) was added to the plates. Cell lysates were collected and placed in −80° C. freezer until RNA isolation and analysis.
RNA was isolated by following the manufacturer's procedures. Briefly, the cell lysates were brought to room temperature. 0.2 ml of chloroform per 1 ml of TRIzol® Reagent was added. The tubes were shaken vigorously for 15 seconds and incubated at ambient temperature for 2 to 3 minutes. The samples were centrifuged at 12,000×g for 15 minutes at 2 to 8° C. Following centrifugation; the mixture separated into multiple phases, and RNA remains exclusively in the upper aqueous phase.
The aqueous phase was then transferred to a fresh tube. The RNA was precipitated from the aqueous phase by mixing with 0.5 ml of isopropyl alcohol per 1 ml of TRIzol® Reagent was used for the initial homogenization. Samples were incubated at 15 to 30° C. for 10 minutes and centrifuged at 12,000×g for 10 minutes at 2 to 8° C. […] The sample was mixed by vortexing and centrifuged at 7,500×g for 5 minutes at 2 to 8° C. The RNA pellet was briefly air dried. RNA was dissolved in RNase-free water, and the concentration of total RNA was determined by using Nanodrop (Thermo Scientific, DE).
Reverse Transcription (RT) reactions were conducted in a total volume of 20 μl. The RT mixture was prepared to contain 2 μl 10× TaqMan RT buffer, 4.4 μl 25 mM MgCl2, 4.0 μl dNTP mix, 1.0 μl Random Hexamer, 0.4 μl RNase Inhibitor, 0.5 μl MultiScribe Reverse Transcriptase (50 U/ml), 2.0 μg of RNA, and RNase-free water to make up the final volume of 20 μl. […] After the RT step, the reactions were stored at −20° C. for qPCR analysis.
Quantitative Polymerase Chain Reaction (qPCR) was conducted in a total volume of 20 μl. Applied Biosystems (AB) Universal PCR master mix was used. The mixture was prepared to contain 10 μl of Taqman Universal PCR mix, 1 μl of primer and probe mix, 2 μl of RT product, and 7 μl of deionized water.
The temperature profiles for QPCR were 50° C. for 2 min, and 95° C. for 10 min for 1 cycle, then at 95° C. for 15 sec, and 60° C. for 1 min for 40 cycles. Values for MAGP-1 mRNA were collected along with those for the reference genes GAPDH.

With `Cc1cccc(Cc2nc3ccccc3n2CC(=O)N2CCOCC2)c1` [Compound of structure II, 2-{2-[(3-methylphenyl)methyl]-1H-1,3-benzodiazol-1-yl}1-(morpholin-4-yl)ethan-1-one], the “Activity Level (percent increase in mRNA for MAGP-1 vs vehicle control)” value (concentration 0.01%) is reported as “++++ (++++: >80%)”. For the compound `CC(C)CN(Cc1ccc(OS(C)(=O)=O)cc1)S(=O)(=O)c1ccccc1` [Compound of structure I, 4-((N-isobutylphenylsulfonamido)methyl)phenyl methanesulfonate], where the note is “concentration 0.01%”, the “Activity Level (percent increase in mRNA for MAGP-1 vs vehicle control)” value was “++++ (++++: >80%)”. Regarding `O=C(O)CCSCCC(=O)O` [Thiodipropionic acid (TDPA), Thiodipropionic acid], the “Activity Level (percent increase in mRNA for MAGP-1 vs vehicle control)” value (concentration 0.001%) was “++ (++: 41-60%)”. As for “lysine-threonine-phenylalanine-lysine [KTFK]”, the “Activity Level (percent increase in mRNA for MAGP-1 vs vehicle control)” value (concentration 0.001%) is reported as “++++ (++++: >80%)”.
